Where a name gives a salt, the structure may show the parent alone. Read-outs that look alike come from different tables or passages of the source. One block for each molecule: values may come before it.
Columns and labels:
plasma proteins = conditions: cited from earlier work; for bound to plasma proteins: PBUTs in plasma, ref 68 (IS, PCS), ref 69 (KA); for Protein Binding (%): ref www.drugbank.ca
[1] = cited from earlier work
OAT1 [2] = molecular target: T1, OAT1 (Homo sapiens, UniProt Q4U2R8); test: OAT1-mediated fluorescein uptake inhibition assay in ciPTEC-OAT1; conditions: for lowest drug concentration with statistically significant decrease (p<0.05) of % fluorescein uptake, with IS: co-incubation with IS; for lowest drug concentration with statistically significant decrease (p<0.05) of % fluorescein uptake, with IS / lowest drug concentration with statistically significant decrease (p<0.05) of % fluorescein uptake, with KA / lowest drug concentration with statistically significant decrease (p<0.05) of % fluorescein uptake, with PCS: reference = toxin alone; for lowest drug concentration with statistically significant decrease (p<0.05) of % fluorescein uptake, with KA: co-incubation with KA; for lowest drug concentration with statistically significant decrease (p<0.05) of % fluorescein uptake, with PCS: co-incubation with PCS; for IC50 at 10 min: human, ciPTEC-OAT1 mature monolayers, pH 7.4, probe fluorescein 1 µM
T1 sequence (Q4U2R8 1-563): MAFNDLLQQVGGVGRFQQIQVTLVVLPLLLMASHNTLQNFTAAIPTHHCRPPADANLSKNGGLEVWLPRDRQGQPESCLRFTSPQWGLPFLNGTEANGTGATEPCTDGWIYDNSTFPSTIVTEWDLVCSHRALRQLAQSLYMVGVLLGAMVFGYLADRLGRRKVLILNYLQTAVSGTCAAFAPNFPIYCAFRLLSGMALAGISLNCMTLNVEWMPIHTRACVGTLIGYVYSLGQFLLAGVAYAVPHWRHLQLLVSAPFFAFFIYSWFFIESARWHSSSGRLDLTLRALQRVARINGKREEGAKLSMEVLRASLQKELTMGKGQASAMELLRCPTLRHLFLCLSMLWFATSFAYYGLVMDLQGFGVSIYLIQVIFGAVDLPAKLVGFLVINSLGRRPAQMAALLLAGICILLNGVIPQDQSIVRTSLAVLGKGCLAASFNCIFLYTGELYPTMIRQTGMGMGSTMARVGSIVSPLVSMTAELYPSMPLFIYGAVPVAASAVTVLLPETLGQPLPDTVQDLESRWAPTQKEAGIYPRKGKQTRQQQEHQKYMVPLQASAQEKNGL

[3] = cited from earlier work; for T1/2 (pharmacologic half life): ref 44 (pravastatin: ref 45)
[4] = Human clearance and half life of tested drugs; type: in vivo
OAT1 [5] = conditions: read-out: IC50 (uric acid uptake, OAT1); OAT1-expressing Flp-HEK293 cells; ref Sato et al. [58]; cited from earlier work
OAT1 [6] = molecular target: T1, OAT1; conditions: read-out: IC50 of uremic toxin in ciPTEC-OAT1 system; cited from earlier work
[7] = substrate: O=C1OC2(c3ccc(O)cc3Oc3cc(O)ccc32)c2ccccc21; test: cells, lysate or membranes; conditions: pH 7.4; 37.0 °C
[8] = co-incubation with UTox, lowest drug concentration

Molecule: O=S(=O)(O)Oc1c[nH]c2ccccc12 [Indoxyl sulfate]
bound to plasma proteins (plasma proteins): 90–95%

IC50 (OAT1 [2]): 2020 ± 465 µM
Molecule: C[C@H](CS)C(=O)N1CCC[C@H]1C(=O)O [Captopril, captopril]
Therapeutic Concentrations ([1]; ref 44 (pravastatin: ref 45)): 0.2 to 5 µM

IC50 (OAT1 [2]): 13.8 ± 8.5 µM
IC50 at 10 min (OAT1 [2]): 23.2 ± 8.3 µM
Renal Clearance (% of Total CL) [4]: 45%
Molecule: CC[C@H](C)C(=O)O[C@H]1C[C@H](O)C=C2C=C[C@H](C)[C@H](CC[C@@H](O)C[C@@H](O)CC(=O)O)[C@H]21 [Pravastatin, pravastatin]
Renal CL ([3]; human): 6.3 mL/min/kg
T1/2 (pharmacologic half life) [3]: 1–2.5 h
Therapeutic Concentrations ([1]; ref 44 (pravastatin: ref 45)): 0.08 to 0.3 µM
Therapeutic Concentrations ([1]; second value in cell): 0.43 µM
lowest drug concentration with statistically significant decrease (p<0.05) of % fluorescein uptake, with IS (OAT1 [2]): 5 µM
lowest drug concentration with statistically significant decrease (p<0.05) of % fluorescein uptake, with KA (OAT1 [2]): 5 µM
lowest drug concentration with statistically significant decrease (p<0.05) of % fluorescein uptake, with PCS (OAT1 [2]): 1 µM
Percentage (%) Fluorescein Uptake at the Lowest Drug Concentration in the presence of UTox (OAT1 [2]; [8]): 27.8 ± 2.6%
Protein Binding (%) (plasma proteins): 60%

Molecule: NCCCC[C@H](N[C@@H](CCc1ccccc1)C(=O)O)C(=O)N1CCC[C@H]1C(=O)O [Lisinopril, lisinopril]
Therapeutic Concentrations ([1]; ref 44 (pravastatin: ref 45)): 0.01 to 0.16 µM
Protein Binding (%) (plasma proteins): negligible
Renal Clearance (% of Total CL) [4]: 100%

IC50 (OAT1 [2]): 11.5 ± 3.5 µM
Renal Clearance (% of Total CL) [4]: 29%
Molecule: CCCCC(=O)N(Cc1ccc(-c2ccccc2-c2nnn[nH]2)cc1)[C@H](C(=O)O)C(C)C [Valsartan, valsartan]
Renal CL ([3]; human): 0.14 mL/min/kg
T1/2 (pharmacologic half life) [3]: 6–9 h
Therapeutic Concentrations ([1]; ref 44 (pravastatin: ref 45)): 2 to 14 µM
IC50 (OAT1 [5]): 16 µM
Percentage (%) Fluorescein Uptake at the Lowest Drug Concentration in the presence of UTox (OAT1 [2]): 24.7 ± 4.5%
Protein Binding (%) (plasma proteins): 94–97%

IC50 (OAT1 [2]): 8.6 ± 2.5 µM
IC50 at 10 min (OAT1 [2]): 3.1 ± 0.7 µM
Renal Clearance (% of Total CL) [4]: 11%
Molecule: CCCCc1nc(Cl)c(CO)n1Cc1ccc(-c2ccccc2-c2nn[nH]n2)cc1 [Losartan, losartan]
Renal CL ([3]; human): 0.9 mL/min/kg
T1/2 (pharmacologic half life) [3]: 1.5–2 h
Therapeutic Concentrations ([1]; ref 44 (pravastatin: ref 45)): 0.5 to 1.5 µM
IC50 (OAT1 [5]): 12 µM
lowest drug concentration with statistically significant decrease (p<0.05) of % fluorescein uptake, with IS (OAT1 [2]): 1 µM
lowest drug concentration with statistically significant decrease (p<0.05) of % fluorescein uptake, with KA (OAT1 [2]): 5 µM
lowest drug concentration with statistically significant decrease (p<0.05) of % fluorescein uptake, with PCS (OAT1 [2]): 1 µM
Percentage (%) Fluorescein Uptake at the Lowest Drug Concentration in the presence of UTox (OAT1 [2]; [8]): 23.5 ± 3.5%
Protein Binding (%) (plasma proteins): 99%

Molecule: Cc1ccc(O[C@@H]2O[C@H](C(=O)O)[C@@H](O)[C@H](O)[C@H]2O)cc1 [p-Cresylglucuronide, p-cresylglucuronide]
IC50 (OAT1 [6]): 2650 ± 922 µM

Molecule: Cc1ccc(OS(=O)(=O)O)cc1 [p-Cresylsulfate, p-cresylsulfate]
bound to plasma proteins (plasma proteins): 90–95%
IC50 (OAT1 [6]): 79 ± 14 µM

Molecule: NS(=O)(=O)c1cc(C(=O)O)c(NCc2ccco2)cc1Cl [Furosemide, furosemide]
Therapeutic Concentrations ([1]; ref 44 (pravastatin: ref 45)): 6 to 30 µM

Renal Clearance (% of Total CL) [4]: 13%
Molecule: CCC(C)(C)C(=O)O[C@H]1C[C@@H](C)C=C2C=C[C@H](C)[C@H](CC[C@@H]3C[C@@H](O)CC(=O)O3)[C@H]21 [Simvastatin, simvastatin]
T1/2 (pharmacologic half life) [3]: 2 h

Molecule: O=C(O)[C@H]1O[C@@H](Oc2c[nH]c3ccccc23)[C@H](O)[C@@H](O)[C@@H]1O [Indoxyl-β-D-glucoronide, indoxyl-β-D-glucoronide]
IC50 (OAT1 [6]): 492 ± 68 µM

inhibition of human OAT1 (in words) (OAT1 [2]; captopril and enalaprilate only at high concentrations with no therapeutic relevance): inhibited
Renal Clearance (% of Total CL) [4]: 100%
Molecule: C[C@H](N[C@@H](CCc1ccccc1)C(=O)O)C(=O)N1CCC[C@H]1C(=O)O [Enalaprilate, enalaprilate]
Renal CL ([3]; human): 1.6 mL/min/kg
Total CL ([3]; human): 1.6 mL/min/kg
T1/2 (pharmacologic half life) [3]: 8–11 h
Therapeutic Concentrations ([1]; ref 44 (pravastatin: ref 45)): 0.04 to 0.4 µM
Protein Binding (%) (plasma proteins): 50%

Molecule: O=C(O)c1cc(=O)c2ccccc2[nH]1 [Kynurenic acid, kynurenic acid]
bound to plasma proteins (plasma proteins): 70%

IC50 (OAT1 [2]): 888 ± 198 µM
Renal Clearance (% of Total CL) [4]: 97%
Molecule: CN/C(=N/CCSCc1nc[nH]c1C)NC#N [Cimetidine]
Renal CL ([3]; human): 7.9 mL/min/kg
T1/2 (pharmacologic half life) [3]: 1.5–4 h
Therapeutic Concentrations ([1]; ref 44 (pravastatin: ref 45)): 1 to 16 µM
Protein Binding (%) (plasma proteins): 20%

B1: OAT1 (Homo sapiens) (protein)
chain: T1 sequence (Q4U2R8 1-563)
Km [7]: 0.93 ± 0.09 µM

— PMC7354492, “Drugs Commonly Applied to Kidney Patients May Compromise Renal Tubular Uremic Toxins Excretion” (Toxins, 2020)
